Columns and labels:
[1] = tested on: human colorectal cancer cells (HCT116); test: Nude mouse xenograft model of human colorectal cancer cells, intraperitoneal administration; assay type: in vivo
Protocol: Anticancer activity against colorectal cancer according to the intraperitoneal administration of Tr-9 was confirmed through a nude mouse xenograft model of human colorectal cancer cells (HCT116). In Example 5, Example 4 was repeated except for using colorectal cancer cells.
Specific pathogen-free (SPF) nude mice of the BALB/C strain were used as the animal model. Animals were bred in the animal room of Daedeok Campus of Hannam University maintained at a temperature of 23±3° C., relative humidity of 55±15%, ventilation frequency of 10-20 times/hr, lighting time of 12 hours(lights on at 8 am and off at 8 pm) and illuminance of 150 to 300 Lux.
For cancer cell transplantation, all cells were collected and counted on the last day of culture, and the concentration of human colorectal cancer cell line HCT116 was adjusted to 5×10^6 cells/ml using PBS. The adjusted cell culture solution was injected subcutaneously into the auxiliary region between the right scapula and chest wall at 0.2 ml (1×10^6 cells/mouse) per mouse.
The Tr-9 was dissolved in sterile PBS and 1 mM Tr-9 200 µℓ was intraperitoneally administered per mouse once a day, and all animals were weighed immediately before the start of drug (Tr-9) administration and 9 times in total from day 2 to day 21 after cancer cell transplantation (Table 7).
In Table 7 above, data values are the mean ± standard deviation. After measuring the body weight, the animals were killed using CO2 gas, and the tumor was separated and the size was measured in 3 directions using a vernier caliper for each animal. Then, the change in tumor size was expressed as a calculated value of (length × width × height)/2 (Table 8).
Tumor size increase is (Δt)═ Vt—Vo, wherein Vt is the value of measuring the tumor size by date, and Vo is the value of measuring the initial tumor size.

[2] = Change in mouse weight, A549 xenograft, oral administration; assay type: in vivo, nude mouse; design: Change in mouse weight: unit not given here; conditions: once a day
Protocol: The Tr-9 was dissolved in sterile PBS and 1 mM Tr-9 200 µℓ was orally administered per mouse once a day, and all animals were weighed immediately before the start of drug (Tr-9) administration and 10 times in total from day 2 to day 23 after cancer cell transplantation (Table 1).
In Table 1 above, data values are the mean ± standard deviation. After measuring the body weight, the animals were killed using CO2 gas, and the tumor was separated and the size was measured in 3 directions using a vernier caliper for each animal. Then, the change in tumor size was expressed as a calculated value of (length × width × height)/2 (Table 2).

[3] = Change in mouse weight, A549 xenograft, intraperitoneal administration; assay type: in vivo, nude mouse; design: Change in mouse weight: unit not given here; conditions: once a day
Protocol: The Tr-9 was dissolved in sterile PBS and 1 mM Tr-9 200 µℓ was intraperitoneally administered per mouse once a day, and all animals were weighed immediately before the start of drug (Tr-9) administration and 10 times in total from day 2 to day 23 after cancer cell transplantation (Table 4).
In Table 4 above, data values are the mean ± standard deviation. After measuring the body weight, the animals were killed using CO2 gas, and the tumor was separated and the size was measured in 3 directions using a vernier caliper for each animal. Then, the change in tumor size was expressed as a calculated value of (length × width × height)/2 (Table 4).

[4] = intraperitoneal once a day, Day 21

C/C=C(/C)C(=O)O[C@@H]1C[C@H](C)[C@H]2CC(=O)C(C)=C2C[C@@H]1C(C)(C)OC(C)=O [Torilin, torilin, reference compound]
Tumor size increase (Vt−V0) ([1]; intraperitoneal once a day, Day 0, table title: Change in tumor size): 0.0±0.0 | Tumor size increase (Vt−V0) ([1]; intraperitoneal once a day, Day 2, table title: Change in tumor size): 54.7±16.2 | Inhibition rate (tumor size increase) ([1]; intraperitoneal once a day, Day 2, vs control): 17.4% | Tumor size increase (Vt−V0) ([1]; intraperitoneal once a day, Day 5, table title: Change in tumor size): 151.4±33.3 | Inhibition rate (tumor size increase) ([1]; intraperitoneal once a day, Day 5, vs control): 16.3% | Tumor size increase (Vt−V0) ([1]; intraperitoneal once a day, Day 7, table title: Change in tumor size): 362.7±59.4 | Inhibition rate (tumor size increase) ([1]; intraperitoneal once a day, Day 7, vs control): 18.9% | Tumor size increase (Vt−V0) ([1]; intraperitoneal once a day, Day 9, table title: Change in tumor size): 565.9±142.4 | Inhibition rate (tumor size increase) ([1]; intraperitoneal once a day, Day 9, vs control): 19.1% | Tumor size increase (Vt−V0) ([1]; intraperitoneal once a day, Day 11, table title: Change in tumor size): 816.9±248.1 | Inhibition rate (tumor size increase) ([1]; intraperitoneal once a day, Day 11, vs control): 20.6% | Tumor size increase (Vt−V0) ([1]; intraperitoneal once a day, Day 14, table title: Change in tumor size): 1086.2±458.4 | Inhibition rate (tumor size increase) ([1]; intraperitoneal once a day, Day 14, vs control): 21.2% | Tumor size increase (Vt−V0) ([1]; intraperitoneal once a day, Day 16, table title: Change in tumor size): 1319.9±614.0 | Inhibition rate (tumor size increase) ([1]; intraperitoneal once a day, Day 16, vs control): 26.5% | Tumor size increase (Vt−V0) ([1]; intraperitoneal once a day, Day 18, table title: Change in tumor size): 1555.6±640.5 | Inhibition rate (tumor size increase) ([1]; intraperitoneal once a day, Day 18, vs control): 24.0% | Tumor weight at Day 21 [1, 4]: 2.85 ± 0.834 g | Tumor weight reduction rate compared to control group [1, 4]: 25.9% | Tumor size increase (Vt−V0) ([1]; intraperitoneal once a day, Day 21, table title: Change in tumor size): 1973.3±821.1 | Inhibition rate (tumor size increase) ([1]; intraperitoneal once a day, Day 21, vs control): 25.2% | tumor size compared to the control group ([1]; intraperitoneal, after day 14): statistically significantly smaller | Change in mouse weight ([2]; 0 Day after drug treatment): 100.0 ±0.0 | Change in mouse weight ([2]; 2 Days after drug treatment): 100.0 ±3.0 | Change in mouse weight ([2]; 5 Days after drug treatment): 97.2 ±2.5 | Change in mouse weight ([2]; 7 Days after drug treatment): 99.5 ±3.5 | Change in mouse weight ([2]; 9 Days after drug treatment): 105.7 ±7.0 | Change in mouse weight ([2]; 12 Days after drug treatment): 101.0 ±6.2 | Change in mouse weight ([2]; 14 Days after drug treatment): 101.8 ±5.5 | Change in mouse weight ([2]; 16 Days after drug treatment): 103.9 ±5.8 | Change in mouse weight ([2]; 19 Days after drug treatment): 101.1 ±5.8 | Change in mouse weight ([2]; 21 Days after drug treatment): 102.9 ±6.0 | Change in mouse weight ([2]; 23 Days after drug treatment): 105.0 ±7.1 | difference in body weight according to the administration of the drugs ([2]; day 2 to day 23): almost no difference in body weight | Change in mouse weight ([3]; 0 Day after drug treatment): 100.0 ±0.0 | Change in mouse weight ([3]; 2 Days after drug treatment): 98.2 ±1.5 | Change in mouse weight ([3]; 5 Days after drug treatment): 98.2 ±1.4 | Change in mouse weight ([3]; 7 Days after drug treatment): 97.6 ±1.0 | Change in mouse weight ([3]; 9 Days after drug treatment): 102.7 ±2.7 | Change in mouse weight ([3]; 12 Days after drug treatment): 101.0 ±3.1 | Change in mouse weight ([3]; 14 Days after drug treatment): 101.2 ±2.6 | Change in mouse weight ([3]; 16 Days after drug treatment): 102.3 ±3.8 | Change in mouse weight ([3]; 19 Days after drug treatment): 103.4 ±5.2 | Change in mouse weight ([3]; 21 Days after drug treatment): 102.9 ±4.1 | Change in mouse weight ([3]; 23 Days after drug treatment): 105.0 ±4.6 | difference in body weight according to the administration of the drugs ([3]; day 2 to day 23): almost no difference in body weight

From patent US20230107983A1, “COMPOUND ISOLATED FROM TORILIDIS FRUCTUS, AND ANTICANCER PHARMACEUTICAL COMPOSITION CONTAINING SAME AS ACTIVE INGREDIENT” (PHARMA-GENE CO., LTD., priority 2020, published 2023)
